Some results are limits rather than exact numbers.

In general, IC50 refers to the point on the concentration scale where inhibition reaches its midpoint.

The subject of assay [1] is BJELR. The experiment in a line: Sytox primary screen. The format is cell-based. To be noted: Homo sapiens, Sytox screen, 48 hours, read-out: IC50 in BJELR. An excerpt: The Sytox primary screen is a phenotypic assay which monitors alterations in cell survival-proliferation as a result of compound treatment. It was devised as high throughput method to identify compounds which specifically alter the growth potential of cells harboring the causative mutations found in cancer patients while not affecting the growth of normal cells.
The assay relies upon an inexpensive, simple and reliable readout of a membrane impermeable fluorescent dye (Sytox, from Molecular Probes) which binds to nucleic acid. In healthy cells, no signal is detected because the cell's membrane is intact and the dye will not enter. However, if a cell's membrane is compromised as a result of apoptosis or necrosis, a fluorescent signal proportional to the number of similarly affected cells will be detected. By utilizing a two-step readout (final read in the presence of detergent to permit labeling of all cells), the assay can identify compounds which produce cytostasis, cytotoxicity and/or mitogenesis. The first read or “dead cell” read provides an estimate of the toxicity of a given compound by indicating the number of dead or dying cells in the culture at the time of assay. The second read or “total cell” read captures both the cumulative effects of cytoxicity in reducing the size of the cell population as well as any cytostatic or anti-proliferative effects a test compound may exert on the cells in the test population in the absence of toxicity.
For the purpose of screening, the previously described BJ-TERT line was defined as the “normal” reference cell line and BJ-TERT/LT/ST/RAS^V12 cells were the tumorigenic cell line. Cells were seeded overnight in 96 well plates at densities which without treatment would permit 95% confluence in the wells 72 H later. The following day, the cells were exposed to test compounds in a dilution series for a period of 48 hours. Following this incubation period, the Sytox reagent was added to the cultures at the manufacturer's recommended concentration and the dead cell fluorescence read was taken. After completion of this measurement, the detergent Saponin was added to each well of the cultures to permeabilize the membranes allowing the Sytox reagent to enter every cell thereby, facilitating measurement of the total number of cells remaining in the culture.

In assay [2] the test system is BJ-TERT/LT/ST/RAS^V12 cells. Description: Calcein AM viability assay, dilution series. Type of assay: cell-based, human. To be noted: within 18 hours; BJ-TERT/LT/ST/RAS^V12 cells. The method, then: Described here is work carried out to identify compounds with increased potency or activity in the presence of hTERT, LT, ST, E6, E7 or RAS^V12. Although the work described herein made use of hTERT, LT, ST, E6, E7 and RAS^V12 as transforming genes, future studies can make use of a wide variety of cancer-associated alleles using this methodology in order to define the signaling networks that involve many oncogenes and tumor suppressors. […] Cell viability was measured using the dye calcein acetoxymethyl ester (calcein AM) (Wang et al., 1993, Hum. Immunol. 37, 264-270), which is a non-fluorescent compound that freely diffuses into cells. […]
Calcein acetoxylmethyl ester (AM) is a cell membrane-permeable, non-fluorescent compound that is cleaved by intracellular esterases to form the anionic, cell-impermeable, fluorescent compound calcein. […] Total fluorescence intensity in each well was recorded on a Packard Fusion platereader, and converted to a percent inhibition of signal by subtracting the instrument background and dividing by the average signal obtained when cells were not treated with any compound. […]
Mean RFU (relative fluorescence units) for untreated cells was calculated by averaging columns 1, 2, and 23 (wells with cells but lacking compounds). The calcein background was calculated by averaging column 24 (wells with calcein, but lacking cells). […]

In assay [3] the test system is BJ-TERT/LT/ST/RAS^V12 cells. Description: Annexin V-FITC apoptosis assay. To be noted: erastin-treated (9 μM); untreated 6%. The format is cell-based, human. As to the method: BJ-TERT/LT/ST/RAS^V12 cells were seeded at 1×10^6 cells per dish in 100 mm dishes and allowed to grow overnight. Cells were treated with erastin (5 or 10 μg/ml) for 6, 8 or 11 h. A camptothecin-treated (0.4 μg/ml) control was maintained, treated at the time of seeding for 20 hours. After the treatment, cells were harvested with trypsin/EDTA and washed once with fresh medium containing serum and then twice with phosphate buffered saline. Cells were resuspended in 1× binding buffer (BD Pharmingen) at a concentration of 1×10^6 cells/ml. 100 μl (1×10^5 cells) was incubated with 5 μl of Annexin V-FITC (BD Pharmingen) and propidium iodiode (BD Pharmingen) for 15 minutes in the dark at room temperature. Then 400 μl of the 1× binding buffer was added and the cells analyzed by flow cytometry (Becton-Dickinson). Data were acquired and analyzed using Cellquest software.

Assay [4] concerns HT-1080 xenografts. Description: HT-1080 tumor treatment study. The format is in vivo, mouse. To be noted: nude Balb/c mice; 100 or 50 mg/Kg, QD×5 days, IP. As to the method: Nude Balb/c (Nu/Nu strain, Charles River Laboratories), female, 5-6 week. old (˜20 g average body weight).
Both compounds were formulated in an identical manner. For the 100 mg/kg dose level, each compound was delivered at a concentration of 10.0 mg/ml, in an injection volume of 0.2 ml. For the 50 mg/kg dose level, each compound was delivered at a concentration of 5.0 mg/ml, in an injection volume of 0.2 ml. For both dose levels, the vehicle contained 0.025% Tween-80, 0.01% benzyl alcohol, 35 mM acetic acid (HOAc), 100 mM potassium phosphate buffer, and 32 mM sucrose, pH=6.5.
Beginning when the mean tumor volume reached ˜200 mm^3, and continuing through day 5, every day, each animal was administered a single IP injection of one of the above treatments, for a total of 5 doses.
Each of 70 mice was implanted with 1×10^7 HT-1080 cells by SC injection of 0.1 cc of inoculum into the right hind flank. A 25 G×⅝″ needle size was used. […]
Starting on Day 1, all animals were weighed, and tumor dimensions (length (L) and width (W)) were measured, every other day. […]
The resulting tumor volume values were averaged for each study group for each time point, and were then plotted against time. Variance was expressed as standard error of the mean (±SEM).

Assay [5] concerns PANC-1 xenografts. Description: PANC-1 tumor treatment study. To be noted: immunodeficient nude mouse; once a day for five consecutive days. Type of assay: in vivo. As to the method: The experimental plan for the PANC-1 study was essentially identical to that of the HT-1080 study outlined above in Example 10 with the following exceptions: approximately 30-40 mg fragment of passaged PANC-1 tumor tissue was implanted subcutaneously in the right flank of an immunodeficient nude mouse. Tumor growth was monitored daily and when the tumors reached approximately 100 mm^3, animals harboring similarly sized tumors were group matched and compound dosing was initiated. Administration of compound 5 occurred once a day for five consecutive days at the doses listed below. In the PANC-1 xenografts, gemcitabine, administered at the maximum tolerated dose for the model, was used as a control. The gemcitabine regimen was 180 mg/kg […] on every third day over a period of 9 days.

In assay [6] the test system is BJ-TERT/LT/ST/RAS^V12 cells relative to BJ-TERT cells. Description: Alamar Blue viability assay, tumorigenic versus wild type cells. Type of assay: cell-based, human. As to the method: Alamar Blue is reduced by mitochondrial enzyme activity in viable cells, causing both colorimetric and fluorescent changes (Nociari et al., 1998, J. Immunol. Methods 13, 157-167). Cells were seeded at a density of 6000 cells (50 μl) per well in a 384-well black, clear bottom plate using a syringe bulk dispenser (Zymark). 10 μl was removed from a two-fold serially diluted erastin plate (6× final concentration) using a 384 fixed cannula head, making the final concentration 20 μg/ml in the well with highest concentration. The plates were incubated for 24 hours. Alamar Blue (Biosource International) was added to each well by diluting 1:10 and incubated for 16 hours at 37° C. Fluorescence intensity was determined using a Packard Fusion platereader with an excitation filter centered on 535 nm and an emission filter centered on 590 nm. Average percentage inhibition at each concentration was calculated. Error bars indicate one standard deviation.
The effect of erastin or erastin B on cell viability was measured using Alamar Blue as described in Example 3 in both tumorigenic BJ-TERT/LT/ST/RAS^V12 (BJELR) cells and wild type BJ-TERT (BJEH) cells. In this example, cell viability was measured at 1, 2, and 3 days after treatment with erastin or erastin B (data for days 1 and 3 not shown). Average percentage inhibition at each concentration was measured.
The effect on cell viability of each of the two isomers of Compound 20 was measured using the Alamar Blue assay described in Example 3 in both tumorigenic BJ-TERT/LT/ST/RAS^V12 cells and wild type BJ-TERT cells. Average percentage inhibition at each concentration was measured.
The effect on cell viability of erastin or Compound 21 was measured using the Alamar Blue assay as described in Example 3 in both tumorigenic BJ-TERT/LT/ST/RAS^V12 cells and in wild type BJ-TERT cells. Average percentage inhibition at each concentration was measured. […]

In the case of `CCOc1ccccc1-n1c(C(C)N2CCNCC2)nc2cc(Cl)ccc2c1=O` (centres unmarked) [Compound 14], the IC50 in assay [1] is ≥ 100 nM.

Take `CCOc1ccccc1-n1c(C(C)N2CCN(CCO)CC2)nc2ccccc2c1=O` (centres unmarked) [Compound 9]: in assay [1], the half-inhibitory concentration (IC50) is ≥ 1000 nM.

With `CCOc1ccccc1-n1c(C(C)N2CCN(C(=O)COc3ccc(Cl)cc3)CC2)nc2ccccc2c1=O` (centres unmarked) [Erastin, 2-[1′-(N-(4″-chlorophenoxyacetyl)-N-piperazino]-ethyl]-3-(2′″-ethoxyphenyl)-quinazolin-4-one], the “effectiveness (cell death)” value in assay [2] is reported as 100%. Further, the “percentage of cells in M1 region (Annexin V staining)” value in assay [3] was 6%.

Consider `CCOc1ccccc1-n1c(CN2CCN(C)CC2)nc2ccccc2c1=O` [Compound 10], for which, in assay [1], the IC50 is ≥ 1000 nM.

For the molecule `O=c1c2ccccc2nc(CN2CCNCC2)n1-c1c(Cl)cccc1Cl` [Compound 16], in assay [1], the IC50 is ≥ 100 nM.

Turning to `CCOc1ccccc1-n1c(C(C)N2CCNCC2)nc2ccccc2c1=O` (centres unmarked) [Compound 6], the concentration for half-maximal inhibition (IC50) in assay [1] is ≥ 1000 nM. Moreover, the “antitumor activity in HT-1080 xenografts” value in assay [4] is listed as “tumor growth inhibition”. Moreover, the “antitumor activity in PANC-1 xenografts” value in assay [5] is “tumor growth inhibition”.

For the molecule `CCOc1ccccc1-n1c(CN2CCN(CC#N)CC2)nc2ccccc2c1=O` [Compound 7], the IC50 in assay [1] was ≥ 100 nM.

Turning to `CCOc1ccccc1-n1c(CN2CCN(CC)CC2)nc2ccccc2c1=O` [Compound 11], the IC50 in assay [1] was ≥ 100 nM.

For `CCOc1ccccc1-n1c(C(C)N2CCN(C)CC2)nc2ccccc2c1=O` (centres unmarked) [Compound 8], the IC50 in assay [1] is ≥ 1000 nM.

As to `CCOc1ccccc1-n1c(CN2CCCNCC2)nc2ccccc2c1=O` [Compound 13], the half-inhibitory concentration (IC50) in assay [1] was < 100 nM.

`CCOc1ccccc1-n1c(CN2CCCN(C)CC2)nc2ccccc2c1=O` [Compound 12]: in assay [1], the IC50 is < 100 nM.

For the molecule `CCN1CCN(Cc2nc3ccccc3c(=O)n2-c2c(Cl)cccc2Cl)CC1` [Compound 17], the IC50 in assay [1] is ≥ 100 nM.

Take `CCOc1ccccc1-n1c(CN2CCN(C(=O)COc3ccc(Cl)cc3)CC2)nc2ccccc2c1=O` [Compound 21, 2-({4-[(4-chlorophenoxy)acetyl]piperazin-1-yl}methyl)-3-(2-ethoxyphenyl)quinazolin-4(3H)-one]: the “lethality in BJ-TERT/LT/ST/RAS^V12 (BJELR) cells compared to BJ-TERT (BJEH) cells” value in assay [6] is “selective lethality”. Moreover, the “profile compared to erastin” value in assay [6] (both cell types) is reported as “profile nearly identical to that of erastin”.
